In US20260325473A1, “N-Beta-Hydroxybutyryl-Amino Acids and Related Compositions and Methods” (The Board of Trustees of the Leland Stanford Junior …, priority 2023, published 2026):
Values belong to the compound of their own block, whether it stands above or below them.

What was measured:
[1] = target: T1, CNDP2 (Mus musculus, UniProt Q9D1A2); assay: In vitro synthase (condensation) activity, lysates of CNDP2-transfected HEK293T cells; type: biochemical; design: expressed in transfected cells; host or cells: HEK293T (lysate); conditions: role: substrate; for amino acid selectivity for the BHB-ylation reaction: amino acid 20 mM with BHB 20 mM
T1 sequence (Q9D1A2 1-475): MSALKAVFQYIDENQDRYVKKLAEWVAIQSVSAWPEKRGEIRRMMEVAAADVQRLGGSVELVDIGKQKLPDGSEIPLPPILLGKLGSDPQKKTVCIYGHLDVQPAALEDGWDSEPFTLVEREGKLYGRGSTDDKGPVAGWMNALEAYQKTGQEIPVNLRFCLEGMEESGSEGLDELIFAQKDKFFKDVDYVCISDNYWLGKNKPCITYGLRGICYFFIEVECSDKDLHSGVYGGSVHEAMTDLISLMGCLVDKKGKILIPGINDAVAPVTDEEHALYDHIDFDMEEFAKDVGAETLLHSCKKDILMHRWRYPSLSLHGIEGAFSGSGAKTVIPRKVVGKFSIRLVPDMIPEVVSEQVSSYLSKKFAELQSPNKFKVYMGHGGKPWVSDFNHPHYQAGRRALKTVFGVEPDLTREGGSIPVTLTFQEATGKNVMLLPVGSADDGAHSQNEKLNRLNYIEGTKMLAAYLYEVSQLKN
Description: In vitro enzyme activity assays. HEK293T cells were transfected with GFP, CNDP2 or CNDP2-E166A using PolyFect (Qiagen 301105) according to the manufacturer's instructions. The medium was changed one day post-transfection. After an additional 24 h, the cells were harvested in PBS, lysed by sonication and centrifuged (10 min at 15,000 rpm) to remove debris. Supernatant was collected and protein concentrations were adjusted. The in vitro reactions were conducted in Eppendorf tubes with 100 μL of 1 mg/mL protein and 20 mM substrates for keto amino acid synthase activity assays and. Reactions were incubated for 1 h at 37° C. and 20 μl of 1 M HCl were added to acidify the medium and to protonate keto amino acids. Reactions were vortexed and 400 μL of ethyl acetate were added to each reaction. Reactions were vortexed for 30 s to extract keto amino acids into the organic layer and centrifuged at 4° C. for 10 min at 15,000 r.p.m. A total of 300 μl from the top layer was transferred to a new Eppendorf tube and dried down under a stream of nitrogen. The residue was re-suspended in 150 μl of an 2:1:1 mixture of acetonitrile: methanol: water. The mixture was centrifuged at 4° C. for 10 min at 15,000 r.p.m. and the supernatant was transferred to a LC-MS vial.

[2] = system: DIO mice; assay: Chronic administration in DIO mice: body weight and food intake; type: in vivo, mouse; conditions: for body weight, head-to-head keto amino acids: 5 days, vs vehicle
Description: General animal information. Animal experiments were performed according to procedure approved by the Stanford University Administrative Panel on Laboratory Animal Care (APLAC). Mice were maintained in 12-hr light-dark cycles at 22° C. and ~50% relative humidity and fed a standard irradiated rodent chow diet. Where indicated, high-fat diet (D12492, Research Diets 60% kcal from fat) and ketogenic diet (D06040601, Research Diets, 80% kcal fat/15% kcal protein/5% kcal carbohydrate) was used. Male C57BL/6J (stock no. 000664) and male C57BL/6J DIO mice (stock no. 380050) were purchased from Jackson Laboratory. Male C57BL/6NCrl (stock no. 027) mice were purchased from Charles River Laboratory. Whole body CNDP2-KO mice (catalog number, C57BL/6NCrl-Cndp2em1 (IMPC) Mbp/Mmucd, RRID: MMRRC_043492-UCD) were obtained from the Mutant Mouse Regional Resource Center, a NCRR-NIH funded strain repository. For in vivo injection of mice with metabolites, compounds were dissolved in 18:1:1 (by volume) of saline/Kolliphor EL (Sigma Aldrich)/DMSO. Compounds were administered to mice daily via intraperitoneal injections at 5 μl/g body weight at the indicated doses. For all injection experiments, mice were mock injected with the vehicle for 3-5 days until body weights have stabilized. Sample sizes were determined on the basis of previous experiments using similar methodologies. For metabolite administration experiments, mice were randomly assigned to treatment groups. Experimenters were not blinded to groups.

[3] = target: T1, CNDP2; assay: Tissue enzyme activity, WT or CNDP2-KO mouse tissue lysates; type: biochemical; conditions: role: product, BHB 20 mM + amino acid 20 mM; for synthesis activity in WT kidney and gut: 1 h, 37° C
Description: (§1) Tissue enzyme activity assays. Mouse tissues were mixed with cold PBS and homogenized using a Benchmark BeadBlaster Homogenizer at 4 °C. Protein concentrations were adjusted and the resulting crude was filtered through a 0.45-μm filter to remove insoluble materials. The in vitro reactions were conducted in Eppendorf tubes with 200 μg protein and incubation with the corresponding substrates at 37° C. for 1 hour. After that time, 10 μl of HCl and 400 μl of ethyl acetate were added in the BHB and lactate reactions and the samples were vortexed for 30 s. Reactions were centrifuged at 4° C. for 10 min at 15,000 r.p.m. and total of 300 μl from the top layer was transferred to a new Eppendorf tube and dried down under a stream of nitrogen. The residue was re-suspended in 100 μl of an 2:1:1 mixture of acetonitrile: methanol: water. The mixture was centrifuged at 4° C. for 10 min at 15,000 r.p.m. and the supernatant was transferred to a LC-MS vial. For carnosine reactions, the reactions were not acidified and were directly quenched with 300 μl of an 2:1:1 mixture of acetonitrile: methanol: water after the 1 h incubation and vortexed for 30 s. The mixture was centrifuged at 4° C. for 10 min at 15,000 r.p.m. and the supernatant was transferred to a LC-MS vial.

[4] = Keto-Med study, plasma metabolites; type: in vivo; conditions: human; 4 weeks WFKD vs baseline
Description: (§2) Targeted metabolomics. Targeted measurements were performed using an Agilent 6470 triple quadrupole LC-MS instrument. MS analysis was performed using AJS in negative mode. The AJS source parameters were set as follows: the dry gas temperature was set at 250° C. with a gas flow of 12 l/min and the nebulizer pressure at 25 psi; the sheath gas temperature was set to 300° C. with the sheath gas flow set at 12 l/min; and the capillary voltage was set to 3,500 V. Separation of polar metabolites was performed as described above in the ‘Untargeted measurements of metabolites by LC-MS’ section. Multiple reaction monitoring was performed for the indicated metabolites with the listed dwell times, fragmentor voltage, collision energies, cell accelerator voltages and polarities. Quantification of the endogenous metabolite concentrations were performed by generating a standard curve with known concentrations of each metabolite. Metabolite standards were analyzed alongside the plasma samples using the same targeted triple quadrupole LC/MS method. A calibration standard curve generated from the metabolite standard concentrations and total peak areas were used to calculate the concentrations of each endogenous metabolite. The dilution of the plasma during the sample preparation was also taken into account for the quantification.
Keto-Med study. Keto-Med was a single-site, randomized, crossover, interventional trial comparing 2 metabolically distinct diets (well-formulated ketogenic diet, WFKD; and Mediterranean-plus diet, Med-Plus) among individuals with prediabetes and T2DM. Forty participants aged ≥18 years with prediabetes or T2DM followed the WFKD and the Med-Plus for 12 weeks each, in random order. Participants were randomly assigned into 1 of 2 different diet sequences: WFKD for 12 weeks (phase 1) and then the Med-Plus for 12 weeks (phase 2), or the opposite order. Ad libitum intake was advised, and participants were guided to follow 2 sets of dietary guidelines that shared 3 important similarities (incorporating nonstarchy vegetables and avoiding added sugars and refined grains) and 3 important differences (incorporating compared with avoiding legumes, fruits, and whole, intact grains). During the WFKD phase, participants were counseled to sustain nutritional ketosis by limiting carbohydrates to 20-50 g/day and keeping proteins to ~1.5 g/kg ideal body weight/day, with the remaining kcals coming from fats. Participants were also instructed to consume >3 servings/day of nonstarchy vegetables and maintain adequate mineral and fluid intake for the ketogenic state (sodium, 3-5 g/day; potassium, 3-4 g/day). […]

[5] = Human ketone ester supplementation study, plasma metabolites; type: in vivo; conditions: ketone ester drink cohort
Description: as §2
Human ketone ester supplementation study. Following screening, eligible subjects participated in a randomized, counter-balanced, double-blind, placebo-controlled crossover trial comparing BHB supplementation versus placebo, separated by a minimum of 2 days (ClinicalTrials.gov ID NCT04194450). Pre-menopausal women were tested in the follicular phase (days 3-9). Participants were asked to refrain from structured exercise and alcohol, limit physical activity, and follow a standardized diet (~50% carbohydrate, ~30% fat, ~20% protein) on the day before each trial. After refraining from medication use for 24 hours, participants reported to the Exercise, Metabolism and Inflammation Laboratory at the University of British Columbia-Okanagan in an overnight fasted state. Anthropometric measurements were obtained prior to insertion of an indwelling intravenous catheter into the antecubital vein for repeated blood sampling. Blood was collected into EDTA tubes (BD, 367863) and immediately centrifuged at 2000 rpm for 15 min and the top layer of plasma was aliquoted and frozen at −80 °C. After baseline (0) blood sample collection, the oral BHB supplement or placebo was consumed in liquid form (~30-65 mL). The BHB supplement (H.V.M.N®, USA) in the form of the ketone monoester (R)-3-hydroxybutyl (R)-3-hydroxybutyrate (AG®, TDeltaS, Oxford, UK) contained 0.4 g mL-1 BHB, natural flavoring, and <2% stevia leaf extract. The taste-matched placebo drink contained the same natural flavoring as the ketone supplement, stevia leaf extract, 5 mL of Bittrex stock (0.005 g of denatonium benzoate powder in 40 ml of water) and 1.5 mL of arrowroot stock (2 g of arrowroot powder in 50 ml of water) to match the bitter flavor and viscosity of the ketone monoester. Supplements were dispensed into opaque 80 ml bottles with volume calculated for 0.3 g BHB/kg body weight and labelled either A or B by a third-party researcher. Blinding was maintained until completion of data collection and analyses.

[6] = target: T1, CNDP2; assay: Carnosine hydrolysis (carnosinase activity) in WT or CNDP2-KO mouse tissue lysates; type: biochemical; conditions: role: substrate, 10 mM carnosine
Description: as §1

SMILES: N[C@@H](Cc1ccccc1)C(=O)O [phenylalanine, reference compound]
amino acid selectivity for the BHB-ylation reaction [1]: CNDP2 catalyzed BHB-ylation
body weight and food intake, conjugate vs components ([2]; 50 mg/kg/day IP, BHB or phenylalanine at the same doses, 9 days): without effect

SMILES: C[C@@H](O)CC(=O)N[C@@H](CCC(N)=O)C(=O)O [Keto-Gln]
induction of plasma keto amino acids on WFKD [4]: Robust induction
induction by ketone ester drink [5]: had not been observed to be induced by ketone ester drink

SMILES: CC(O)CC(=O)N[C@@H](Cc1c[nH]cn1)C(=O)O (some centres unmarked) [BHB-His]
food intake and body weight, related metabolites and dipeptides ([2]; 50 mg/kg IP, 9 days): failed to reduce food intake or body weight

SMILES: CC(C)C[C@H](N)C(=O)O [leucine]
amino acid selectivity for the BHB-ylation reaction [1]: CNDP2 catalyzed BHB-ylation

SMILES: NCCC(=O)N[C@@H](Cc1cnc[nH]1)C(=O)O [carnosine]
carnosine hydrolysis across tissues [6]: highest activity in liver and quadriceps and little activity in the kidney, gut, and brain
carnosinase activity, effect of CNDP2 ablation ([6]; CNDP2-KO vs WT): not sensitive to genetic ablation of CNDP2

The next lines start with results.

amino acid selectivity for the BHB-ylation reaction [1]: CNDP2 catalyzed BHB-ylation
SMILES: CC[C@H](C)[C@H](N)C(=O)O [isoleucine]

BHB-amino acid synthesis activity in CNDP2-KO kidney and gut [3]: largely abolished
SMILES: CSCC[C@H](NC(=O)CC(C)O)C(=O)O (some centres unmarked) [BHB-Met, N-betahydroxybutyryl-methionine]
synthesis activity in WT kidney and gut [3]: highest BHB-amino acid synthesis activity
body weight, head-to-head keto amino acids ([2]; 50 mg/kg/day IP): effective in suppressing body weight

product formed with lactate and phenylalanine as only substrates ([1]; lactate alone with 20 mM phenylalanine): exclusive production of Lac-Phe
SMILES: C[C@H](O)C(=O)O [lactate]

amino acid selectivity for the BHB-ylation reaction [1]: CNDP2 catalyzed BHB-ylation
SMILES: CC(C)[C@H](N)C(=O)O [valine]

BHB-amino acid synthesis activity in CNDP2-KO kidney and gut [3]: largely abolished
SMILES: CC(C)C[C@H](NC(=O)CC(C)O)C(=O)O (some centres unmarked) [BHB-Leu, N-betahydroxybutyryl-leucine]
synthesis activity in WT kidney and gut [3]: highest BHB-amino acid synthesis activity
body weight, head-to-head keto amino acids ([2]; 50 mg/kg/day IP): effective in suppressing body weight

induction of plasma keto amino acids on WFKD [4]: Robust induction
SMILES: C[C@@H](O)CC(=O)N[C@H](C(=O)O)[C@@H](C)O [Keto-Thr]
induction by ketone ester drink [5]: had not been observed to be induced by ketone ester drink

CNDP2-dependent condensation activity with C4-hydroxycarboxylic acid isomers ([1]; with phenylalanine): not detected
SMILES: CC(CO)C(=O)O (centres unmarked) [3-HIB, 3-hydroxisobutyric acid]
